From patent US20190307776A1, “AZA-S[…] HUMAN IMMUNODEFICIENCY VIRUS REPLICATION” (priority 2016, published 2019)

Tested on: recombinant NL4-3 virus
Assay: HIV cell culture assay
Format: cell-based
Conditions: Human immunodeficiency virus 1, NL43, MT2
Protocol: HIV cell culture assay—MT-2 cells and 293T cells were obtained from the NIH AIDS Research and Reference Reagent Program. MT-2 cells were propagated in RPMI 1640 media supplemented with 10% heat inactivated fetal bovine serum, 100 […]. The 293T cells were propagated in DMEM media supplemented with 10% heat inactivated fetal bovine serum (FBS), 100 units/ml penicillin G and 100 μg/ml streptomycin. The proviral DNA clone of NL4-3 was obtained from the NIH AIDS Research and Reference Reagent Program. A recombinant NL4-3 virus, in which a section of the nef gene from NL4-3 was replaced with the Renilla luciferase gene, was used as a reference virus. In addition, residue Gag P373 was converted to P373S. Briefly, the recombinant virus was prepared by transfection of the altered proviral clone of NL4-3. Transfections were performed in 293T cells using LipofectAMINE PLUS from Invitrogen (Carlsbad, Calif.), according to manufacturer's instruction. The virus was titered in MT-2 cells using luciferase enzyme activity as a marker. Luciferase was quantitated using the Dual Luciferase kit from Promega (Madison, Wis.), with modifications to the manufacturer's protocol. The diluted Passive Lysis solution was pre-mixed with the re-suspended Luciferase Assay Reagent and the re-suspended Stop & Glo Substrate (2:1:1 ratio). Fifty (50) μL of the mixture was added to each aspirated well on assay plates and luciferase activity was measured immediately on a Wallac TriLux (Perkin-Elmer). Antiviral activities of inhibitors toward the recombinant virus were quantified by measuring luciferase activity in cells infected for 4-5 days with NLRluc recombinants in the presence serial dilutions of the inhibitor.

Which EC50 does the source give for `C=C(C)[C@@H]1CC[C@]2(CNCCCN3CCS(=O)(=O)CC3)CC[C@]3(C)[C@H](CC[C@@H]4[C@@]5(C)CCN(c6ncc(C(N)=O)cn6)C(C)(C)[C@@H]5CC[C@]43C)[C@@H]12` [Example 50, 2-((4aR,6aR,6bR,8aS,11R,11aR,11bR,13aR,13bR)-8a-(((3-(1,1-dioxidothiomorpholino)propyl)amino)methyl)-4,4,6a,6b,13b-pentamethyl-11-(prop-1-en-2-yl)hexadecahydro-1H-cyclopenta[5,6]naphtho[2,1-f]isoquinolin-3(2H,4H,13bH)-yl)pyrimidine-5-carboxamide] here?
The EC50 was 60 nM.

Which EC50 does the source give for `C=C(C)[C@@H]1CC[C@]2(NCCN3CCS(=O)(=O)CC3)CC[C@]3(C)[C@H](CC[C@@H]4[C@@]5(C)CCN(c6ncc(C(=O)O)cn6)C(C)(C)[C@@H]5CC[C@]43C)[C@@H]12` [Example 53, 2-((4aR,6aR,6bR,8aS,11R,11aR,11bR,13aR,13bR)-8a-((2-(1,1-dioxidothiomorpholino)ethyl)amino)-4,4,6a,6b,13b-pentamethyl-11-(prop-1-en-2-yl)hexadecahydro-1H-cyclopenta[5,6]naphtho[2,1-f]isoquinolin-3(2H,4H,13bH)-yl)pyrimidine-5-carboxylic acid] here?
Its EC50 is 1 nM.

For `C=C(C)[C@@H]1CC[C@]2(CO)CC[C@]3(C)[C@H](CC[C@@H]4[C@@]5(C)CCCN(C(=O)CCCCC(=O)O)C(C)(C)C5CC[C@]43C)[C@@H]12` (stereo partly drawn) [Example 4, 6-((7aR,7bR,9aS,12R,12aR,12bR,14aR,14bR)-9a-(hydroxymethyl)-5,5,7a,7b,14b-pentamethyl-12-(prop-1-en-2-yl)icosahydrocyclopenta[7,8]phenanthro[2,1-c]azepin-4(1H)-yl)-6-oxohexanoic acid], which EC50 is on record?
The EC50 was greater than 8000 nM.

For `C=C(C)[C@@H]1CC[C@]2(CNCCCN3CCS(=O)(=O)CC3)CC[C@]3(C)[C@H](CC[C@@H]4[C@@]5(C)CCN(c6ccc([N+](=O)[O-])cc6)C(C)(C)[C@@H]5CC[C@]43C)[C@@H]12` [Example 46, 4-(3-((((4aR,6aR,6bR,8aS,11R,11aR,11bR,13aR,13bR)-4,4,6a,6b,13b-pentamethyl-3-(4-nitrophenyl)-11-(prop-1-en-2-yl)icosahydro-1H-cyclopenta[5,6]naphtho[2,1-f]isoquinolin-8a-yl)methyl)amino)propyl)thiomorpholine 1,1-dioxide], which EC50 is on record?
The EC50 was greater than 330 nM.

How did the EC50 turn out when `C=C(C)[C@@H]1CC[C@]2(CO)CC[C@]3(C)[C@H](CC[C@@H]4[C@@]5(C)CCN(S(=O)(=O)c6ccsc6C(=O)O)C(C)(C)C5CC[C@]43C)[C@@H]12` (stereo partly drawn) [Example 21, 3-(((6aR,6bR,8aS,11R,11aR,11bR,13aR,13bR)-8a-(hydroxymethyl)-4,4,6a,6b,13b-pentamethyl-11-(prop-1-en-2-yl)icosahydro-3H-cyclopenta[5,6]naphtho[2,1-f]isoquinolin-3-yl)sulfonyl)thiophene-2-carboxylic acid] was run?
The EC50 was greater than 8000 nM.

For `C=C(C)[C@@H]1CC[C@]2(CNCCCN3CCS(=O)(=O)CC3)CC[C@]3(C)[C@H](CC[C@@H]4[C@@]5(C)CCN(C(=O)Cc6cccc(CC(=O)O)c6)C(C)(C)[C@@H]5CC[C@]43C)[C@@H]12` [Example 27, 2-(3-(2-((4aR,6aR,6bR,8aS,11R,11aR,11bR,13aR,13bR)-8a-(((3-(1,1-dioxidothiomorpholino)propyl)amino)methyl)-4,4,6a,6b,13b-pentamethyl-11-(prop-1-en-2-yl)hexadecahydro-1H-cyclopenta[5,6]naphtho[2,1-f]isoquinolin-3(2H,4H,13bH)-yl)-2-oxoethyl)phenyl)acetic acid], which EC50 is on record?
Its EC50 is 300 nM.

How did the EC50 turn out when `C=C(C)[C@@H]1CC[C@]2(CO)CC[C@]3(C)[C@H](CC[C@@H]4[C@@]5(C)CCCN(S(=O)(=O)c6ccc(CC(=O)O)cc6)C(C)(C)C5CC[C@]43C)[C@@H]12` (stereo partly drawn) [Example 15, 2-(4-(((7aR,7bR,9aS,12R,12aR,12bR,14aR,14bR)-9a-(hydroxymethyl)-5,5,7a,7b,14b-pentamethyl-12-(prop-1-en-2-yl)icosahydrocyclopenta[7,8]phenanthro[2,1-c]azepin-4(1H)-yl)sulfonyl)phenyl)acetic acid] was run?
The EC50 was greater than 8000 nM.

`C=C(C)[C@@H]1CC[C@]2(CO)CC[C@]3(C)[C@H](CC[C@@H]4[C@@]5(C)CCN(C(=O)C(=O)O)C(C)(C)C5CC[C@]43C)[C@@H]12` (stereo partly drawn) [Example 6, 2-((6aR,6bR,8aS,11R,11aR,11bR,13aR,13bR)-8a-(hydroxymethyl)-4,4,6a,6b,13b-pentamethyl-11-(prop-1-en-2-yl)icosahydro-3H-cyclopenta[5,6]naphtho[2,1-f]isoquinolin-3-yl)-2-oxoacetic acid] was tested. Which EC50 did it give?
Its EC50 is 4000 nM.

For `C=C(C)[C@@H]1CC[C@]2(CNCCCN3CCS(=O)(=O)CC3)CC[C@]3(C)[C@H](CC[C@@H]4[C@@]5(C)CCN(c6ccc(C(=O)O)nn6)C(C)(C)[C@@H]5CC[C@]43C)[C@@H]12` [Example 54, 6-((4aR,6aR,6bR,8aS,11R,11aR,11bR,13aR,13bR)-8a-(((3-(1,1-dioxidothiomorpholino)propyl)amino)methyl)-4,4,6a,6b,13b-pentamethyl-11-(prop-1-en-2-yl)hexadecahydro-1H-cyclopenta[5,6]naphtho[2,1-f]isoquinolin-3(2H,4H,13bH)-yl)pyridazine-3-carboxylic acid], which EC50 is on record?
The EC50 was 280 nM.

`C=C(C)[C@@H]1CC[C@]2(CNCCCN3CCS(=O)(=O)CC3)CC[C@]3(C)[C@H](CC[C@@H]4[C@@]5(C)CCN(c6ncc(C(=O)O)cn6)C(C)(C)[C@@H]5CC[C@]43C)[C@@H]12` [Example 49, 2-((4aR,6aR,6bR,8aS,11R,11aR,11bR,13aR,13bR)-8a-(((3-(1,1-dioxidothiomorpholino)propyl)amino)methyl)-4,4,6a,6b,13b-pentamethyl-11-(prop-1-en-2-yl)hexadecahydro-1H-cyclopenta[5,6]naphtho[2,1-f]isoquinolin-3(2H,4H,13bH)-yl)pyrimidine-5-carboxylic acid] was tested. Which EC50 did it give?
Its EC50 is 0.7 nM.

For `C=C(C)[C@@H]1CC[C@]2(CNCCCN3CCS(=O)(=O)CC3)CC[C@]3(C)[C@H](CC[C@@H]4[C@@]5(C)CCN(C(=O)/C=C/C(=O)O)C(C)(C)[C@@H]5CC[C@]43C)[C@@H]12` [Example 32, (E)-4-((4aR,6aR,6bR,8aS,11R,11aR,11bR,13aR,13bR)-8a-(((3-(1,1-dioxidothiomorpholino)propyl)amino)methyl)-4,4,6a,6b,13b-pentamethyl-11-(prop-1-en-2-yl)hexadecahydro-1H-cyclopenta[5,6]naphtho[2,1-f]isoquinolin-3(2H,4H,13bH)-yl)-4-oxobut-2-enoic acid], which EC50 is on record?
The EC50 was 300 nM.

Which EC50 does the source give for `C=C(C)[C@@H]1CC[C@]2(CO)CC[C@]3(C)[C@H](CC[C@@H]4[C@@]5(C)CCCN(S(=O)(=O)c6ccc(C(=O)O)o6)C(C)(C)C5CC[C@]43C)[C@@H]12` (stereo partly drawn) [Example 11, 5-(((7aR,7bR,9aS,12R,12aR,12bR,14aR,14bR)-9a-(hydroxymethyl)-5,5,7a,7b,14b-pentamethyl-12-(prop-1-en-2-yl)icosahydrocyclopenta[7,8]phenanthro[2,1-c]azepin-4(1H)-yl)sulfonyl)furan-2-carboxylic acid] here?
Its EC50 is greater than 8000 nM.
